From patent publication US8461107B2 (Merck Sharp & Dohme Corp., priority 2008, dated 2013)

Target: T1, HCV genotype 1b (BK) NS3 modified with a R155K mutation (Hepatitis C virus genotype 1b, UniProt P26663, R1181K)
T1 construct: HCV genotype 1b (BK) NS3 modified with a R155K mutation
Assay: HCV NS3 protease time-resolved fluorescence (TRF) assay, NS3 protease 1b R155K Ki activity
Assay type: biochemical
Settings: HCV genotype 1b (BK) NS3 with R155K mutation; TRF peptide substrate 100 nM; Ki derived from IC50
How it was run: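 Pre-incubation of NS3/NS4A protease (genotype 1b BK, R155K) with inhibitor for 30 min, then 1 h at room temperature with 100 nM TRF peptide substrate in pH 7.5 HEPES buffer with 10 mM DTT. Reaction quenched with pH 5.5 MES; time-resolved fluorescence read (ex 340/em 615 nm). Ki derived from four-parameter IC50 fit via IC50=Ki(1+[S]/KM).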

| SMILES | Ki |
| --- | --- |
| CC[C@@H]1C[C@]1(NC(=O)[C@@H]1C[C@@H]2CN1C(=O)[C@H](C1CCCC1)NC(=O)O[C@@H]1CCC[C@H]1CC/C=C/Cn1c(nc3cc(C#N)ccc3c1=O)O2)C(=O)NS(=O)(=O)C1CC1 [(3aR,7S,10S,12R,22E,25aS)-16-cyano-7-cyclopentyl-N-((1R,2R)-1-{[(cyclopropylsulfonyl)amino]carbonyl}-2-ethylcyclopropyl)-5,8,19-trioxo-1,2,3,3a,5,6,7,8,11,12,21,24,25,25a-tetradecahydro-10H,19H-9,12-methanocyclopenta[18,19][1,10,3,6,12]dioxatriazacyclononadecino[11,12-b]quinazoline-10-carboxamide] | 0.1 to 0.5 nM |
| C=C[C@@H]1C[C@]1(NC(=O)[C@@H]1C[C@@H]2CN1C(=O)[C@H](C1CCCC1)NC(=O)O[C@@H]1CCC[C@H]1CCC/C=C/Cn1c(cc3ccccc3c1=O)O2)C(=O)NS(=O)(=O)C1CC1 [(3aR,7S,10S,12R,22E,26aR)-7-cyclopentyl-N-((1R,2S)-1-{[(cyclopropylsulfonyl)amino]carbonyl}-2-vinylcyclopropyl)-5,8,19-trioxo-2,3,3a,5,6,7,8,11,12,21,24,25,26,26a-tetradecahydro-1H,10H,19H-9,12-methanocyclopenta[19,20][1,10,3,6,12]dioxatriazacycloicosino[12,11-b]isoquinoline-10-carboxamide] | 0.1 to 0.5 nM |
| C=C[C@@H]1C[C@]1(NC(=O)[C@@H]1C[C@@H]2CN1C(=O)[C@H](C1CCCC1)NC(=O)O[C@@H]1CCC[C@H]1C/C=C/CCn1c(cc3cc(OC)ccc3c1=O)O2)C(=O)NS(=O)(=O)C1CC1 [(3aR,7S,10S,12R,23E,25aS)-7-cyclopentyl-N-((1R,2S)-1-{[(cyclopropylsulfonyl)amino]carbonyl}-2-vinylcyclopropyl)-16-methoxy-5,8,19-trioxo-1,2,3,3a,5,6,7,8,11,12,21,22,25,25a-tetradecahydro-10H,19H-9,12-methanocyclopenta[18,19][1,10,3,6,12]dioxatriazacyclononadecino[12,11-b]isoquinoline-10-carboxamide] | < 0.1 nM |
| C=C[C@@H]1C[C@]1(NC(=O)[C@@H]1C[C@@H]2CN1C(=O)[C@H](C1CCCC1)NC(=O)O[C@@H]1CCC[C@H]1C/C=C/CCn1c(cc3ccc(F)cc3c1=O)O2)C(=O)NS(=O)(=O)C1CC1 [(3aR,7S,10S,12R,23E,25aS)-7-cyclopentyl-N-((1R,2S)-1-{[(cyclopropylsulfonyl)amino]carbonyl}-2-vinylcyclopropyl)-17-fluoro-5,8,19-trioxo-1,2,3,3a,5,6,7,8,11,12,21,22,25,25a-tetradecahydro-10H,19H-9,12-methanocyclopenta[18,19][1,10,3,6,12]dioxatriazacyclononadecino[12,11-b]isoquinoline-10-carboxamide] | 0.1 to 0.5 nM |
| CC[C@@H]1C[C@]1(NC(=O)[C@@H]1C[C@@H]2CN1C(=O)[C@H](C(C)(C)C)NC(=O)O[C@@H]1CCC[C@H]1C/C=C/CCn1c(cc3cc(Cl)ccc3c1=O)O2)C(=O)NS(=O)(=O)C1CC1 [(3aR,7S,10S,12R,23E,25aS)-7-tert-butyl-16-chloro-N-((1R,2R)-1-{[(cyclopropylsulfonyl)amino]carbonyl}-2-ethylcyclopropyl)-5,8,19-trioxo-1,2,3,3a,5,6,7,8,11,12,21,22,25,25a-tetradecahydro-10H,19H-9,12-methanocyclopenta[18,19][1,10,3,6,12]dioxatriazacyclononadecino[12,11-b]isoquinoline-10-carboxamide] | 0.1 to 0.5 nM |
| C=C[C@@H]1C[C@]1(NC(=O)[C@@H]1C[C@@H]2CN1C(=O)[C@H](C(C)(C)C)NC(=O)O[C@@H]1CCC[C@H]1C/C=C/CCn1c(cc3cc(Cl)ccc3c1=O)O2)C(=O)NS(=O)(=O)C1CC1 [(3aR,7S,10S,12R,23E,25aS)-7-tert-butyl-16-chloro-N-((1R,2S)-1-{[(cyclopropylsulfonyl)amino]carbonyl}-2-vinylcyclopropyl)-5,8,19-trioxo-1,2,3,3a,5,6,7,8,11,12,21,22,25,25a-tetradecahydro-10H,19H-9,12-methanocyclopenta[18,19][1,10,3,6,12]dioxatriazacyclononadecino[12,11-b]isoquinoline-10-carboxamide] | < 0.1 nM |
| C=C[C@@H]1C[C@]1(NC(=O)[C@@H]1C[C@@H]2CN1C(=O)[C@H](C(C)(C)C)NC(=O)O[C@@H]1CCC[C@H]1C/C=C/CCn1c(cc3ccccc3c1=O)O2)C(=O)NS(=O)(=O)C1CC1 [(3aR,7S,10S,12R,23E,25aS)-7-tert-butyl-N-((1R,2S)-1-{[(cyclopropylsulfonyl)amino]carbonyl}-2-vinylcyclopropyl)-5,8,19-trioxo-1,2,3,3a,5,6,7,8,11,12,21,22,25,25a-tetradecahydro-10H,19H-9,12-methanocyclopenta[18,19][1,10,3,6,12]dioxatriazacyclononadecino[12,11-b]isoquinoline-10-carboxamide] | < 0.1 nM |
| C=C[C@@H]1C[C@]1(NC(=O)[C@@H]1C[C@@H]2CN1C(=O)[C@H](C(C)(C)C)NC(=O)O[C@@H]1CCC[C@H]1C/C=C/CCn1c(cc3cc(OC)ccc3c1=O)O2)C(=O)NS(=O)(=O)C1CC1 [(3aR,7S,10S,12R,23E,25aS)-7-tert-butyl-N-((1R,2S)-1-{[(cyclopropylsulfonyl)amino]carbonyl}-2-vinylcyclopropyl)-16-methoxy-5,8,19-trioxo-1,2,3,3a,5,6,7,8,11,12,21,22,25,25a-tetradecahydro-10H,19H-9,12-methanocyclopenta[18,19][1,10,3,6,12]dioxatriazacyclononadecino[12,11-b]isoquinoline-10-carboxamide] | 0.1 to 0.5 nM |
| CC[C@@H]1C[C@]1(NC(=O)[C@@H]1C[C@@H]2CN1C(=O)[C@H](C1CCCCC1)NC(=O)O[C@@H]1CCC[C@H]1C/C=C/CCn1c(cc3cc(Cl)ccc3c1=O)O2)C(=O)NS(=O)(=O)C1CC1 [(3aR,7S,10S,12R,23E,25aS)-16-chloro-7-cyclohexyl-N-((1R,2R)-1-{[(cyclopropylsulfonyl)amino]carbonyl}-2-ethylcyclopropyl)-5,8,19-trioxo-1,2,3,3a,5,6,7,8,11,12,21,22,25,25a-tetradecahydro-10H,19H-9,12-methanocyclopenta[18,19][1,10,3,6,12]dioxatriazacyclononadecino[12,11-b]isoquinoline-10-carboxamide] | 0.1 to 0.5 nM |
| C=C[C@@H]1C[C@]1(NC(=O)[C@@H]1C[C@@H]2CN1C(=O)[C@H](C1CCCCC1)NC(=O)O[C@@H]1CCC[C@H]1C/C=C/CCn1c(cc3cc(Cl)ccc3c1=O)O2)C(=O)NS(=O)(=O)C1CC1 [(3aR,7S,10S,12R,23E,25aS)-16-chloro-7-cyclohexyl-N-((1R,2S)-1-{[(cyclopropylsulfonyl)amino]carbonyl}-2-vinylcyclopropyl)-5,8,19-trioxo-1,2,3,3a,5,6,7,8,11,12,21,22,25,25a-tetradecahydro-10H,19H-9,12-methanocyclopenta[18,19][1,10,3,6,12]dioxatriazacyclononadecino[12,11-b]isoquinoline-10-carboxamide] | < 0.1 nM |
| C=C[C@@H]1C[C@]1(NC(=O)[C@@H]1C[C@@H]2CN1C(=O)[C@H](C1CCCC1)NC(=O)O[C@@H]1CCC[C@H]1C/C=C/CCn1c(cc3cc(Cl)ccc3c1=O)O2)C(=O)NS(=O)(=O)C1CC1 [(3aR,7S,10S,12R,23E,25aS)-16-chloro-7-cyclopentyl-N-((1R,2S)-1-{[(cyclopropylsulfonyl)amino]carbonyl}-2-vinylcyclopropyl)-5,8,19-trioxo-1,2,3,3a,5,6,7,8,11,12,21,22,25,25a-tetradecahydro-10H,19H-9,12-methanocyclopenta[18,19][1,10,3,6,12]dioxatriazacyclononadecino[12,11-b]isoquinoline-10-carboxamide] | < 0.1 nM |
| CC[C@@H]1C[C@]1(NC(=O)[C@@H]1C[C@@H]2CN1C(=O)[C@H](C1CCCC1)NC(=O)O[C@@H]1CCC[C@H]1CCCCCn1c(nc3ccccc3c1=O)O2)C(=O)NS(=O)(=O)C1CC1 [(3aR,7S,10S,12R,25aR)-7-cyclopentyl-N-((1R,2R)-1-{[(cyclopropylsulfonyl)amino]carbonyl}-2-ethylcyclopropyl)-5,8,19-trioxo-1,2,3,3a,5,6,7,8,11,12,21,22,23,24,25,25a-hexadecahydro-10H,19H-9,12-methanocyclopenta[18,19][1,10,3,6,12]dioxatriazacyclononadecino[11,12-b]quinazoline-10-carboxamide] | 0.1 to 0.5 nM |
| CC[C@@H]1C[C@]1(NC(=O)[C@@H]1C[C@@H]2CN1C(=O)[C@H](C1CCCC1)NC(=O)O[C@@H]1CCC[C@H]1CCCCCn1c(cc3ccccc3c1=O)O2)C(=O)NS(=O)(=O)C1CC1 [(3aR,7S,10S,12R,25aR)-7-cyclopentyl-N-((1R,2R)-1-{[(cyclopropylsulfonyl)amino]carbonyl}-2-ethylcyclopropyl)-5,8,19-trioxo-1,2,3,3a,5,6,7,8,11,12,21,22,23,24,25,25a-hexadecahydro-10H,19H-9,12-methanocyclopenta[18,19][1,10,3,6,12]dioxatriazacyclononadecino[12,11-b]isoquinoline-10-carboxamide] | 0.1 to 0.5 nM |
| CC[C@@H]1C[C@]1(NC(=O)[C@@H]1C[C@@H]2CN1C(=O)[C@H](C1CCCC1)NC(=O)O[C@@H]1CCC[C@H]1CCCCCn1c(nc3cc(-c4ccccc4)ccc3c1=O)O2)C(=O)NS(=O)(=O)C1CC1 [(3aR,7S,10S,12R,25aR)-7-cyclopentyl-N-((1R,2R)-1-{[(cyclopropylsulfonyl)amino]carbonyl}-2-ethylcyclopropyl)-5,8,19-trioxo-16-phenyl-1,2,3,3a,5,6,7,8,11,12,21,22,23,24,25,25a-hexadecahydro-10H,19H-9,12-methanocyclopenta[18,19][1,10,3,6,12]dioxatriazacyclononadecino[11,12-b]quinazoline-10-carboxamide] | 0.1 to 0.5 nM |
